Results as given in patent US8273718B2, “Composition for prevention or treatment of bone metabolism disorder comprising D-pinitol as an active ingredient” (Solgent Co., priority 2007, dated 2012).

Experiments:
[1] = system: Raw264.7 cells; experiment: Osteoclastogenesis of Raw264.7 cells, TRAP staining; format: cell-based
Description: Raw264.7 cells were cultured in α-MEM (α-minimal essential medium) containing 10% FBS (fetal bovine serum). In the experiment of examining osteoclastogenesis, cells were adjusted to 2.0×10^3 cells/200 μl on 96-well plate and incubated with 200 ng/ml of sRANKL. TRAP (tartrate resistant acid phophatase) staining and TRAP solution assay were carried out at forth day after culturing cells for 3 days with treatment of D-pinitol at concentrations of 1, 3.5, 7, 12.5, 25 and 50 mM respectively. Cells were fixed for TRAP staining and TRAP solution assay. TARP positive multinuclear (more than 3 nuclei) cells were counted as an osteoclast-like cell. Cells were observed using Leica DM IRM microscope. For cytochemical staining of TRAP positive cell, medium was removed. After that, 100 μl of 10% formalin was added to cells and incubated for 10 min at room temperature. 100 μl of methanol/acetone was added and incubated for 1 min at room temperature. Cells were stained with 10 ml of TRAP buffer (Tris-HCl, pH 4.5, EDTA), naphthol AS phosphate (substrate, Sigma #N-4875) and 5 mg of Fast Red Violet dye (Sigma, F-1625). 1 mg of naphthol AS phosphate dissolved in […] of N, N-dimethyl formide (DMF, Sigma #319937) was used. The reaction was performed for 10-30 min and then red color was observed. Where red color is clearly observed, it was washed with flowing water and dried. […] Raw264.7 cell line was treated with 200 ng/ml of RankL for 4 days. […] To quantitate inhibitory activity of D-pinitol in osteoclastogenesis of Raw264.7 cells, multinucleate cell number was measured via TRAP staining according to various treatment concentration of D-pinitol. […] Therefore, it could be understood that D-pinitol was a substance to inhibit osteoclastogenesis of Raw264.7 cell. D-pinitol inhibited osteoclastogenesis almost 100% at a concentration of 50 mM.

[2] = system: bone marrow-derived osteoclast; experiment: Differentiation of bone marrow-derived osteoclast, TRAP solution assay; format: cell-based, mouse
Description: TRAP solution assay of TRAP positive cells were carried out according to the following method. Medium was removed, 100 μl of 10% formalin was added and incubated for 10 min at room temperature. After 100 μl of methanol/acetone was added, incubated for 1 min at room temperature, and then dried. TRAP substrate solution comprising a tablet of pNPP (p-nitrophenylphosphate) dissolved in 20 ml of TRAP buffer (pH 5.2) was added into and incubated for 20-30 min at 37° C. 100 μl of TRAP substrate solution was transferred to a new 96-well plate in which 50 μl of 1N NaOH was contained. Finally, OD (optical density) value was measured at 405 nm. To extract mouse bone marrow cells, thighbone and shinbone of male C57BL/6 mouse at 3-4 weeks of age were aseptically enucleated and their soft tissues were eliminated. Both end of long bone was cut in extracted bone tissues and then bone marrow cells were collected by injecting α-MEM/10% FBS into bone marrow cavity at one end using a 26G injection syringe. Collected bone marrow cells were subjected to 5 ng/ml of M-CSF and incubated for 16 hrs. Unattached cells on plate bottom were harvested. […] To determine inhibitory effect of D-pinitol on osteoclastogenesis, osteoclast derived from bone marrow primary cells was analyzed using TRAP solution assay.

[3] = system: bone marrow-derived osteoclast; experiment: Osteoclast differentiation in respective stages of osteoclastogenesis; format: cell-based, mouse; details: from 2 days after culture, not less than 25 mM
Description: To examine the effect of D-pinitol on osteoclast at each stage of culturing, D-pinitol was added to the culture media of osteoclast with various concentrations. D-pinitol-treated osteoclast was separated at each cultured time and then amount of differentiated osteoclast was analyzed using TRAP solution assay. To analyze the effect of D-pinitol on respective stages of differentiation of bone marrow-derived osteoclast, the differentiation state of osteoclast, which has been cultured in the presence of various concentration of D-pinitol, was estimated in a time-dependent course. […] It could be also understood that D-pinitol affects in the cell-fusion stage of the osteoclastogenesis.

[4] = system: bone marrow-derived osteoclast; experiment: Bone resorption-degradative potential of osteoclast on bone fragments (toluidine blue staining); format: cell-based, mouse
Description: To examine the effect of D-pinitol on degradative potential of osteoclast in the bone resorption process, fragment of tooth bone was added in 96-well plate and then bone marrow cells were cultured until 1.0×10^5 cells/200 μl. For the differentiation of osteoclast, 50 ng/ml of M-CSF and 200 ng/ml of sRANKL were added. D-pinitol was added to the media in a concentration-dependent manner and incubated for 4 days. Where the differentiation of osteoclast was observed after completing the culture, cells were removed in bone fragment and observed in microscope via 1% toluidine blue staining. To investigate the effect of D-pinitol on the bone resorption-degradative potential of osteoclast, cells were treated with D-pinitol in the range of 0-50 mM during the differentiation into osteoclast on bone fragments which were obtained from human teeth.

[5] = system: bone marrow-derived hematopoietic stem cells; experiment: Cytotoxicity of D-pinitol on bone marrow hematopoietic stem cells (CCK8); format: cell-based, mouse
Description: To investigate the cytotoxicity of D-pinitol to a bone marrow cell, bone marrow cells were adjusted to 1.0×10^5 cells/200 μl on 96-well plate and co-cultured with 50 ng/ml of M-CSF. Then, cultured cells were grown for 4 days while treating with D-pinitol at concentrations of 1, 3.5, 7, 12.5, 25 and 50 mM respectively. Cytotoxicity was measured using CCK8 kit (Cell Counting Kit-8, Dojindo, Japan). 10% CCK8 solution was added to culture solutions according to each culture time and incubated for 2 hrs at 37° C. After culturing, an absorbance was measured at 450 nm using Microplate reader (Bio-Rad).
To extract mouse bone marrow cells, thighbone and shinbone of male C57BL/6 mouse at 3-4 weeks of age were aseptically enucleated and their soft tissues were eliminated. Both end of long bone was cut in extracted bone tissues and then bone marrow cells were collected by injecting α-MEM/10% FBS into bone marrow cavity at one end using a 26G injection syringe. Collected bone marrow cells were subjected to 5 ng/ml of M-CSF and incubated for 16 hrs. Unattached cells on plate bottom were harvested.
The instant inventors examined the cytotoxicity of D-pinitol on hematopoietic stem cells. […] After that, the proliferation-induced cells were treated with D-pinitol at a range of 0-50 mM and the effect of D-pinitol on cell proliferation was determined by measuring CCK8 enzyme activity. […]

[6] = system: co-culture of osteoblast and bone marrow-derived osteoclast; experiment: Osteoclastogenesis in co-culture of osteoblast and bone marrow cells, TRAP staining; format: cell-based, mouse
Description: To prepare a primary osteoblast of mice, frontal bone and parietal bone of fetal mice at 1 day of age were aseptically enucleated. After washing enucleated bone tissue with PBS solution, it was subsequently treated with mixed-enzyme solution (0.2% collagenase and 0.1% dispase) 6 times at 20 min intervals. Cells having the property of osteoblast were harvested and then washed with culture solution. Washed cells were cultured in α-MEM containing 10% serum for 3 days and used as a primary osteoblast. Co-culture was carried out in a manner that 1.0×10^4 cells/200 μl of osteoblast and 1.0×10^5 cells of bone marrow cells were cultured on 96-well plate with vitamin D3 (10^−6M) and prostagrandin E2 (PGE2, 10^−8M) for 5 days. After culturing, TRAP staining was performed. Osteoblast was extracted from mouse skull and then co-cultured with hematopoietic stem cells of bone marrow in order to induce the differentiation of osteoclast. The effect of D-pinitol on osteoclastogenesis was investigated by treating cells with D-pinitol with a range of 0-50 mM during the differentiation-inducing process.

[7] = system: Raw264.7 cells; experiment: Cytotoxicity of D-pinitol on Raw264.7 cells (cell number count); format: cell-based; details: 0-50 mM, cell number counted for 3 days at 24 hrs intervals; up to maximum 50 mM
Description: To verify the cytotoxicity of D-pinitol to Raw264.7 cell, Raw264.7 cells were grown on 96-well plate until 0.5×10^3 cells/200 μl. Cells were cultured for 3 days while treating with D-pinitol at concentrations of 1, 3.5, 7, 12.5, 25 and 50 mM respectively. Cell number increased during 3 days of culture was counted to determine the cytotoxicity of added compounds.
The present inventors examined the cytotoxicity of D-pinitol at various concentrations. Influence of D-pinitol to cell proliferation was examined by treating Raw264.7 cells with various concentrations of D-pinitol. Osteoclast progenitor cell line, Raw264.7 cells were cultured and treated with D-pinitol in a range of 0-50 mM concentration. The number of survived cells was counted for 3 days at 24 hrs intervals.

[8] = system: bone marrow-derived osteoclast; experiment: Differentiation of bone marrow-derived osteoclast, TRAP staining; format: cell-based, mouse
Description: For cytochemical staining of TRAP positive cell, medium was removed. After that, 100 μl of 10% formalin was added to cells and incubated for 10 min at room temperature. 100 μl of methanol/acetone was added and incubated for 1 min at room temperature. Cells were stained with 10 ml of TRAP buffer (Tris-HCl, pH 4.5, EDTA), naphthol AS phosphate (substrate, Sigma #N-4875) and 5 mg of Fast Red Violet dye (Sigma, F-1625). 1 mg of naphthol AS phosphate dissolved in […] of N, N-dimethyl formide (DMF, Sigma #319937) was used. The reaction was performed for 10-30 min and then red color was observed. Where red color is clearly observed, it was washed with flowing water and dried. […] To extract mouse bone marrow cells, thighbone and shinbone of male C57BL/6 mouse at 3-4 weeks of age were aseptically enucleated and their soft tissues were eliminated. Both end of long bone was cut in extracted bone tissues and then bone marrow cells were collected by injecting α-MEM/10% FBS into bone marrow cavity at one end using a 26G injection syringe. Collected bone marrow cells were subjected to 5 ng/ml of M-CSF and incubated for 16 hrs. Unattached cells on plate bottom were harvested. For the induction of the differentiation of bone marrow-derived osteoclast, bone marrow cells of 1.0×10^5 cells per well were cultured with α-MEM/10% FBS in the presence of 200 ng/ml of sRANKL and 50 ng/ml of M-CSF. D-pinitol was added to media at various concentrations during culture. Three experiments were carried out at each concentration and media were replaced at third day after grown in complete media containing sRANKL, M-CSF and D-pinitol. […] To investigate the effect of D-pinitol on the osteoclast differentiation from bone marrow-derived monocyte, hematopoietic stem cells were extracted from bone marrow and activated for 1 day by M-CSF (5 ng/ml), resulting in induction of the differentiation into mononuclear cells. […] To quantitate the effect of D-pinitol in osteoclatogenesis of bone marrow-derived monocyte, osteoclast cell number within sample was measured using TRAP staining. […]

[9] = system: Raw264.7 cells; experiment: Osteoclastogenesis of Raw264.7 cells, TRAP solution assay; format: cell-based; details: RankL
Description: Raw264.7 cells were cultured in α-MEM (α-minimal essential medium) containing 10% FBS (fetal bovine serum). In the experiment of examining osteoclastogenesis, cells were adjusted to 2.0×10^3 cells/200 μl on 96-well plate and incubated with 200 ng/ml of sRANKL. TRAP (tartrate resistant acid phophatase) staining and TRAP solution assay were carried out at forth day after culturing cells for 3 days with treatment of D-pinitol at concentrations of 1, 3.5, 7, 12.5, 25 and 50 mM respectively. Cells were fixed for TRAP staining and TRAP solution assay. TARP positive multinuclear (more than 3 nuclei) cells were counted as an osteoclast-like cell. Cells were observed using Leica DM IRM microscope. TRAP solution assay of TRAP positive cells were carried out according to the following method. Medium was removed, 100 μl of 10% formalin was added and incubated for 10 min at room temperature. After 100 μl of methanol/acetone was added, incubated for 1 min at room temperature, and then dried. TRAP substrate solution comprising a tablet of pNPP (p-nitrophenylphosphate) dissolved in 20 ml of TRAP buffer (pH 5.2) was added into and incubated for 20-30 min at 37° C. 100 μl of TRAP substrate solution was transferred to a new 96-well plate in which 50 μl of 1N NaOH was contained. Finally, OD (optical density) value was measured at 405 nm. […]

In the case of COC1C(O)C(O)C(O)C(O)C1O [D-pinitol], the inhibition at 50000 µM ([1]; Mus musculus, RAW264.7, 50 mM, multinucleate cell count by TRAP staining) is reported as about 100%, the “osteoclastogenesis (TRAP staining photographs)” value ([1]; RankL 200 ng/ml, 4 days, increasing concentration up to 50 mM) is reported as “significantly impaired” and the multinucleate cell number ([1]; RankL 200 ng/ml, increasing concentration of D-pinitol) is reported as “significantly decreased”. The “inhibitory effect on differentiation of bone marrow-derived osteoclast” value [2] was “also observed”, the “differentiation of bone marrow-derived osteoclast” value [3] was “remarkably inhibited” and the “bone resorption-degradative potential of osteoclast” value ([4]; 0-50 mM, increasing concentration, bone fragments from human teeth) was “remarkably decreased”. For the same compound, the “bone resorption-degradative potential of osteoclast” value ([4]; not less than 25 mM) was “dramatically decreased”, the “effect on CCK8 activity” value ([5]; 0-50 mM, M-CSF 50 ng/ml) was “no effect” and the “influence on proliferation of hematopoietic stem cells” value ([5]; not more than 50 mM) was “no influence”. For the same compound, the “cell number of multinucleated osteoclast” value ([6]; 0-50 mM, increasing concentration) was “significantly decreased”, the osteoclastogenesis ([6]; 50 mM) was “clearly inhibited” and the Raw264.7 cell cytotoxicity [7] was “not observed”. For the same compound, the “number of TRAP-stained osteoclast” value ([8]; 0-50 mM, RankL 200 ng/ml and M-CSF 50 ng/ml, 4 days) was “decreased in proportion to the concentration”, the inhibition at 50000 µM ([8]; Mus musculus, Osteoclast, 50 mM, bone marrow-derived monocyte, read-out: inhibition of osteoclastogenesis) was about 100% and the “concentration from which a remarkable decrease of multinucleate cell number was observed” value ([8]; TRAP staining count) was 25 mM. For the same compound, the “inhibitory activity in TRAP solution assay versus counting multinucleate cell number” value [9] was “relatively weaker”.
